Measured values reported in ChEMBL document CHEMBL4425099, “Use of Osmotic Pumps to Establish the Pharmacokinetic-Pharmacodynamic Relationship and Define Desirable Human Performance Characteristics for Aggrecanase Inhibitors” (J Med Chem, 2016).
Calls of active or inactive are those of the source. The calls are words filed in the database; no cut-off is given here.

Key:
[1] = species: Homo sapiens; assay: Selectivity ratio of IC50 for human MMP14 to IC50 for human ADAMTS4
[2] = target: Matrix metalloproteinase-14 (Homo sapiens, UniProt P50281); assay: Inhibition of human MMP14 using Mca-PQGL-(3-[2,4-dinitrophenyl]-L-2,3-diaminopropionyl)-AR-OH as substrate measured after 2 to 4 hrs by fluorescence analysis
[3] = target: T1, A disintegrin and metalloproteinase with thrombospondin motifs 4 (Homo sapiens, UniProt O75173); assay: Inhibition of human ADAMTS4 using 43-mer VQTVTWPDMELPLPRNITEGEARGSVILTVKPIFEVSPSPLKG as substrate measured after 3 hrs by AlphaScreen assay
T1 sequence (O75173 whole entry): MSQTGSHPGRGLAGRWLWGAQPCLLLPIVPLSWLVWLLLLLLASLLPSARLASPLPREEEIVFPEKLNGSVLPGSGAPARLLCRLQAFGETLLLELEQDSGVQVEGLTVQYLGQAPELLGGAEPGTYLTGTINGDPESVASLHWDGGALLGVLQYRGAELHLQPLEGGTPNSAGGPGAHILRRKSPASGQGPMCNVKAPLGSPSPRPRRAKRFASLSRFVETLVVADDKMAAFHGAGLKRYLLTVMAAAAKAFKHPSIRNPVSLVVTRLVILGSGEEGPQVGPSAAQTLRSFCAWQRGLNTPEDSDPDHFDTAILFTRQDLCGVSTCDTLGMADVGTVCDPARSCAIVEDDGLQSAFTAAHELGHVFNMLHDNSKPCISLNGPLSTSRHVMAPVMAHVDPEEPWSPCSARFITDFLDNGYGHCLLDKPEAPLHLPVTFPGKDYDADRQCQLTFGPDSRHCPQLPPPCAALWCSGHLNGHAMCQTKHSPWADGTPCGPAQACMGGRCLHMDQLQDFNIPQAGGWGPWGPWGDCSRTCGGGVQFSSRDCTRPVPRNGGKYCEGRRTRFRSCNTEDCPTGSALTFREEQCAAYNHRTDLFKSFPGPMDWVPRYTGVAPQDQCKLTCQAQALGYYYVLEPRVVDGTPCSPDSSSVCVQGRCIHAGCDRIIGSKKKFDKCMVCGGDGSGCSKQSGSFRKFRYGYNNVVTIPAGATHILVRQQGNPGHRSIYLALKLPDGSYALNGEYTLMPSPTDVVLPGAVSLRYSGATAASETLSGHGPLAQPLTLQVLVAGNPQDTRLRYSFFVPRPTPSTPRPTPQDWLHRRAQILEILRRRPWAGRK

[4] = species: Homo sapiens; assay: Selectivity ratio of IC50 for human MMP3 to IC50 for human ADAMTS5
[5] = target: T2, ADAMTS5 (Rattus norvegicus) (UniProt Q6TY19); assay: Inhibition of rat ADAMTS5 using 43-mer VQTVTWPDMELPLPRNITEGEARGSVILTVKPIFEVSPSPLKG as substrate measured after 3 hrs by AlphaScreen assay
T2 sequence (whole entry): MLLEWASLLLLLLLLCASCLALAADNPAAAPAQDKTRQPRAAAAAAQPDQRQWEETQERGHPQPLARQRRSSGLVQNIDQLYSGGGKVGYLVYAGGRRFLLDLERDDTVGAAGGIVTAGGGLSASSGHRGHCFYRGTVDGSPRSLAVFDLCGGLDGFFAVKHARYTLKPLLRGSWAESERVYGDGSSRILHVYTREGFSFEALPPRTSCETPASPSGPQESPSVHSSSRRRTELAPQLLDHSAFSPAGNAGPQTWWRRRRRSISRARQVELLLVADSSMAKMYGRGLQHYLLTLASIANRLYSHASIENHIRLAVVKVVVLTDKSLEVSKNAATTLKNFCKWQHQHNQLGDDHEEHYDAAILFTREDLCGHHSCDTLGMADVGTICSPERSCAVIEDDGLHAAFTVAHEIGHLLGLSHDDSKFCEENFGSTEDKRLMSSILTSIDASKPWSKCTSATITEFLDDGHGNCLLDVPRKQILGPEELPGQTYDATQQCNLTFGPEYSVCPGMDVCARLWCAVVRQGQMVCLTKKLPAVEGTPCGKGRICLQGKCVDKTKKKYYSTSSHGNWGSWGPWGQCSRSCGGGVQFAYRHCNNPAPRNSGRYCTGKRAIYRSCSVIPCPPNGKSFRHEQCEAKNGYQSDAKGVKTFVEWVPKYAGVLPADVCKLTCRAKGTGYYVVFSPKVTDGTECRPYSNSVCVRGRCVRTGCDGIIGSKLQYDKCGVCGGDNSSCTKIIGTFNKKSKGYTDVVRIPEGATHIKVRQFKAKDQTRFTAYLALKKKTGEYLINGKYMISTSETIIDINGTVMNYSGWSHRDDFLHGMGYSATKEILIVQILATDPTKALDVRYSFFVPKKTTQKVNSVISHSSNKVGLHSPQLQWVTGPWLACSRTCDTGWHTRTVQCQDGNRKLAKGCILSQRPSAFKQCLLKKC

[6] = species: Homo sapiens; assay: Selectivity ratio of IC50 for human TACE to IC50 for human ADAMTS5
[7] = species: Homo sapiens; assay: Selectivity ratio of IC50 for human MMP1 to IC50 for human ADAMTS5
[8] = species: Homo sapiens; assay: Selectivity ratio of IC50 for human MMP13 to IC50 for human ADAMTS4
[9] = species: Homo sapiens; assay: Selectivity ratio of IC50 for human MMP3 to IC50 for human ADAMTS4
[10] = species: Homo sapiens; assay: Selectivity ratio of IC50 for human MMP7 to IC50 for human ADAMTS4
[11] = target: Stromelysin-1 (Homo sapiens, UniProt P08254); assay: Inhibition of human MMP3 using Mca-PQGL-(3-[2,4-dinitrophenyl]-L-2,3-diaminopropionyl)-AR-OH as substrate measured after 2 to 4 hrs by fluorescence analysis
Sequence of Stromelysin-1 (P08254 whole entry): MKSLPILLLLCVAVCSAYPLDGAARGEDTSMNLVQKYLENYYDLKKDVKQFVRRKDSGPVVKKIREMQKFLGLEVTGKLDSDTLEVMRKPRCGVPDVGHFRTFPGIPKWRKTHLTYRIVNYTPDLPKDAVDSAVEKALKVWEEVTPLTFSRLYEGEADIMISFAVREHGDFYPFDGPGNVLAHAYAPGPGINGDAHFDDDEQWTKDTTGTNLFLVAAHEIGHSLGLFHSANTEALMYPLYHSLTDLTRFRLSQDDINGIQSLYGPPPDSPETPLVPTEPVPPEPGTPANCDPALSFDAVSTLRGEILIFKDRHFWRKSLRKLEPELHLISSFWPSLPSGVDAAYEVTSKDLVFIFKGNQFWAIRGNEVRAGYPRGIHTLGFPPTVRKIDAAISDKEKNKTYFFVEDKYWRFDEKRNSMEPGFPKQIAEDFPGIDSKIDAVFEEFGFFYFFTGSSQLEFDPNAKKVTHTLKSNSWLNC

[12] = Ratio of Cmax in Lewis rat plasma to IC50 for human ADAMTS5 in presence of Lewis rat plasma; assay type: ADME; settings: in vivo
[13] = species: Homo sapiens; assay: Selectivity ratio of IC50 for human MMP13 to IC50 for human ADAMTS5
[14] = species: Homo sapiens; assay: Selectivity ratio of IC50 for human MMP2 to IC50 for human ADAMTS5
[15] = species: Homo sapiens; assay: Selectivity ratio of IC50 for human TACE to IC50 for human ADAMTS4
[16] = species: Homo sapiens; assay: Selectivity ratio of IC50 for human MMP7 to IC50 for human ADAMTS5
[17] = target: 72 kDa type IV collagenase (Homo sapiens, UniProt P08253); assay: Inhibition of human MMP2 using Mca-PQGL-(3-[2,4-dinitrophenyl]-L-2,3-diaminopropionyl)-AR-OH as substrate measured after 2 to 4 hrs by fluorescence analysis
Sequence of 72 kDa type IV collagenase (P08253 whole entry): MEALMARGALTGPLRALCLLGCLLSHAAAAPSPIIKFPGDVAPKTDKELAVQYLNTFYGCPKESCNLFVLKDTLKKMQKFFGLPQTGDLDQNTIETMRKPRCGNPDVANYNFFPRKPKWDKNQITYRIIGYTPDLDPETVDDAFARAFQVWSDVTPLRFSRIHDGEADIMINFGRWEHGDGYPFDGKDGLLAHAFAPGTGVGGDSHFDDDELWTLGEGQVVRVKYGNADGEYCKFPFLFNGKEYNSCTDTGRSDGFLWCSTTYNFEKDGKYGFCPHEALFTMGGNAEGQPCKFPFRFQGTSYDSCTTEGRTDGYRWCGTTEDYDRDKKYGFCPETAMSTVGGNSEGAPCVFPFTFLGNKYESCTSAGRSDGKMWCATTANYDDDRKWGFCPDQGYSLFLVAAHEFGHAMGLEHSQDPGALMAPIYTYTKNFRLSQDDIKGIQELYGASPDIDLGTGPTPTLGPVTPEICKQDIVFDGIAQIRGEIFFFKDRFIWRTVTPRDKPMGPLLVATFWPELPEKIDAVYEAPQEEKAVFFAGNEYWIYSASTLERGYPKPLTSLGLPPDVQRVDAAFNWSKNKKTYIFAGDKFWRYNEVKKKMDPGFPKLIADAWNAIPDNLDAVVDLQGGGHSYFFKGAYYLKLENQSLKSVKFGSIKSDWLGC

[18] = target: Matrix metalloproteinase-9 (Homo sapiens, UniProt P14780); assay: Inhibition of human MMP9 using Mca-PQGL-(3-[2,4-dinitrophenyl]-L-2,3-diaminopropionyl)-AR-OH as substrate measured after 2 to 4 hrs by fluorescence analysis
Sequence of Matrix metalloproteinase-9 (P14780 whole entry): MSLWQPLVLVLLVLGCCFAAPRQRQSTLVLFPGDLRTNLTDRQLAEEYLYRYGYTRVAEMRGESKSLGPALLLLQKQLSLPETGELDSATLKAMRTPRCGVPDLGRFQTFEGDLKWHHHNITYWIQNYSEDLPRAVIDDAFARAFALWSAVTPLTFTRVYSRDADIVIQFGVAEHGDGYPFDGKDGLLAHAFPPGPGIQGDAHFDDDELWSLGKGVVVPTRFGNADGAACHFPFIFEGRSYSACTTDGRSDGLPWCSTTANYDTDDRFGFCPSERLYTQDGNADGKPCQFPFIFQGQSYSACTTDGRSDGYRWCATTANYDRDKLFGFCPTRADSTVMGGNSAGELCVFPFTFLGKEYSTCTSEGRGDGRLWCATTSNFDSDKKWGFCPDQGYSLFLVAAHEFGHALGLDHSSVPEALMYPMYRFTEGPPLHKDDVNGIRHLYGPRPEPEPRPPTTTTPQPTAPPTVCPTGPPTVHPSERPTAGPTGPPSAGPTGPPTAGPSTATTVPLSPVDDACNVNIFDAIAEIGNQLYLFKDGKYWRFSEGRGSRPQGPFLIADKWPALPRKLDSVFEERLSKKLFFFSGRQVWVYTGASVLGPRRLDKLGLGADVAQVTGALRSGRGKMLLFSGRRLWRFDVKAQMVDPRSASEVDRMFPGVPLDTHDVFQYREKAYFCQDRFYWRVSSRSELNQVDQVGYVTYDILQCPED

[19] = species: Homo sapiens; assay: Selectivity ratio of IC50 for human MMP9 to IC50 for human ADAMTS5
[20] = species: Homo sapiens; assay: Selectivity ratio of IC50 for human MMP14 to IC50 for human ADAMTS5

Row | Ratio IC50 [1] | IC50 [2] | IC50 [3] | Ratio IC50 [4] | inhibition [5] | Ratio IC50 [6] | Ratio IC50 [7] | Ratio IC50 [8] | Ratio IC50 [9] | Ratio IC50 [10] | IC50 [11] | Ratio [12] | Ratio IC50 [13] | Ratio IC50 [14] | Ratio IC50 [15] | Ratio IC50 [16] | IC50 [17] | IC50 [18] | Ratio IC50 [19] | Ratio IC50 [20] | Compound
1 | > 1000 | 34 µM | 0.008 µM | > 1000 | Active | > 1000 | > 1000 | > 1000 | > 1000 | > 1000 | 23 µM | 160 | > 1000 | > 1000 | > 1000 | > 1000 | 3.5 µM | 14 µM | > 1000 | > 1000 | CCn1ccnc1[C@]1(CNC(=O)c2cc3cc(Cl)ccc3o2)NC(=O)NC1=O
2 | > 1000 | 37 µM | 0.003 µM | > 1000 | Active | > 1000 | > 1000 | > 1000 | > 1000 | > 1000 | 23 µM | 139 | > 1000 | > 1000 | > 1000 | > 1000 | 3.2 µM | 17 µM | > 1000 | > 1000 | Cn1ccnc1[C@]1(CNC(=O)c2cc3cc(Cl)ccc3o2)NC(=O)NC1=O
3 | > 1000 | – | – | > 1000 | Active | > 1000 | > 1000 | > 1000 | > 1000 | > 1000 | – | 220 | > 1000 | > 1000 | > 1000 | > 1000 | – | 65 µM | > 1000 | > 1000 | Cn1ccnc1[C@]1(CNC(=O)c2cc3cc(C(F)(F)F)ccc3o2)NC(=O)NC1=O
4 | > 1000 | 26 µM | 0.006 µM | > 1000 | Active | > 1000 | > 1000 | > 1000 | > 1000 | > 1000 | 7.1 µM | 160 | > 1000 | > 1000 | > 1000 | > 1000 | 2.4 µM | – | > 1000 | > 1000 | Cc1cnc([C@]2(CNC(=O)c3cc4cc(Cl)ccc4o3)NC(=O)NC2=O)n1C
5 | > 1000 | 78 µM | 0.004 µM | > 1000 | Active | > 1000 | > 1000 | > 1000 | > 1000 | > 1000 | 60 µM | 270 | > 1000 | > 1000 | > 1000 | > 1000 | 11 µM | 41 µM | > 1000 | > 1000 | CCn1ccnc1[C@]1(CNC(=O)c2cc3cc(C(F)(F)F)ccc3o2)NC(=O)NC1=O
6 | > 1000 | 57 µM | 0.004 µM | > 1000 | Active | > 1000 | > 1000 | > 1000 | > 1000 | > 1000 | 51 µM | 170 | > 1000 | > 1000 | > 1000 | > 1000 | 11 µM | 64 µM | > 1000 | > 1000 | Cc1cnc([C@]2(CNC(=O)c3cc4cc(C(F)(F)F)ccc4o3)NC(=O)NC2=O)n1C
7 | > 1000 | 7.6 µM | 0.006 µM | > 1000 | Active | > 1000 | > 1000 | > 1000 | > 1000 | > 1000 | 17 µM | – | > 1000 | > 1000 | > 1000 | > 1000 | 5.8 µM | 19 µM | > 1000 | > 1000 | O=C1NC(=O)[C@](CNC(=O)c2cc3cc(C(F)(F)F)ccc3o2)(C2CC2)N1
